Here are results for 13 molecules from ChEMBL document CHEMBL1201862, “PubChem BioAssay data set” (2004).

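Growth conditions: 96-well plates. Treatment: test compound, 48 hours, 5 concentrations. Analysis: linear interpolation between bracketing concentrations; unreached endpoints set to highest concentration. Here, GI50 denotes the concentration required for 50% inhibition of growth.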 Active and inactive are the calls of the source. Rule as the data show it: active = GI50 up to about 1.1 µM and inactive = higher. Where only a bound is given, the exact number is not on record here.

Some test systems named below: UACC-257; OVCAR-5; HCT-116; UO-31; SNB-19; UACC-62; EKVX; TK-10; NCI-H522; SK-MEL-28; Malme-3M; HCT-15; LXFL 529; U-251; ACHN; SNB-75; OVCAR-3.
Test in all cases: DTP human tumour cell line panel, 48 h

With `COC(=O)C(C(=O)C(=O)Nc1cccc(OC)c1)c1cnc2ccccc2n1` (stereo not given), the GI50 was > 100 µM (inactive) with UACC-257; > 100 µM (inactive) in the assay with OVCAR-5; 29.3 µM (inactive) with HCT-116; > 100 µM (inactive) in the assay on UO-31; > 100 µM (inactive) with SNB-19; > 100 µM (inactive) in the assay on UACC-62. Also, the GI50 in the assay on EKVX was > 100 µM (inactive); with TK-10, > 100 µM (inactive); in the assay on NCI-H522, > 100 µM (inactive); in the assay on SK-MEL-28 it was > 100 µM (inactive); in the assay on Malme-3M it was > 100 µM (inactive); in the assay with HCT-15, > 100 µM. For the same molecule, the GI50 in the assay with LXFL 529, in the assay on U-251, with ACHN and in the assay on SNB-75 was > 100 µM (inactive) in each case.
For `Clc1ccc(CN2COc3c(cc(Cl)c4cccnc34)C2)cc1`, the GI50 with OVCAR-3 was 1.99 µM (inactive); with UACC-257, 2.84 µM (inactive); with OVCAR-5, 2.24 µM (inactive); with HCT-116 it was 2.15 µM (inactive); in the assay with UO-31, 0.649 µM (active); in the assay on SNB-19, 4.24 µM (inactive). Also, the GI50 was 1.55 µM (inactive) in the assay with UACC-62; 4.7 µM (inactive) with EKVX; 4.57 µM (inactive) with TK-10; 1.6 µM (inactive) with NCI-H522; 2.57 µM (inactive) with SK-MEL-28; 2.34 µM (inactive) in the assay on Malme-3M. The GI50 in the assay with HCT-15 was 0.456 µM; with LXFL 529 it was 1.36 µM (inactive); in the assay on U-251, 2.32 µM (inactive); in the assay with ACHN it was 1.74 µM (inactive); in the assay on SNB-75, 3.4 µM (inactive).
Consider `Nc1nc2c(nnn2C2C=C(CO)C(O)C2O)c(=O)[nH]1` (stereo not given), for which the GI50 in the assay on OVCAR-3, in the assay with UACC-257, in the assay with OVCAR-5, in the assay on HCT-116, with UO-31 and with SNB-19 was > 100 µM (inactive) in each case. For the same molecule, the GI50 was 58.6 µM (inactive) with UACC-62; > 100 µM (inactive) in the assay with EKVX; > 100 µM (inactive) in the assay with TK-10; > 100 µM (inactive) in the assay with NCI-H522; > 100 µM (inactive) in the assay on SK-MEL-28; 95.7 µM (inactive) in the assay with Malme-3M. The GI50 is > 100 µM in the assay with HCT-15; > 100 µM (inactive) with LXFL 529; > 100 µM (inactive) in the assay with U-251; > 100 µM (inactive) with ACHN; > 100 µM (inactive) in the assay on SNB-75.
On to `O=C(O)CN(c1ccc(Cl)cc1)S(=O)(=O)c1ccccc1`, for which the GI50 with OVCAR-3, in the assay on UACC-257, in the assay with OVCAR-5, in the assay with UO-31, in the assay on SNB-19 and in the assay with UACC-62 was > 100 µM (inactive) each time. The GI50 in the assay on EKVX is > 100 µM (inactive); in the assay with TK-10, > 100 µM (inactive); in the assay on NCI-H522, > 100 µM (inactive); in the assay with SK-MEL-28 it was > 100 µM (inactive); in the assay with Malme-3M, > 100 µM (inactive); in the assay on HCT-15, > 100 µM. The GI50 in the assay with LXFL 529, in the assay on U-251, with ACHN and in the assay on SNB-75 was > 100 µM (inactive) in each case.
As to `CC1=NN(C(=O)Cc2ccccc2)C(=O)/C1=C\c1ccc(O)cc1`, the GI50 in the assay on OVCAR-3, in the assay with UACC-257, in the assay with OVCAR-5, with HCT-116, in the assay on UO-31 and in the assay with SNB-19 was > 100 µM (inactive) each time. For the same molecule, the GI50 in the assay on UACC-62, in the assay with EKVX, with TK-10, with NCI-H522, with SK-MEL-28 and with Malme-3M was > 100 µM (inactive) in each case. For the same molecule, the concentration for 50% growth inhibition (GI50) in the assay with HCT-15 is > 100 µM; in the assay with LXFL 529, > 100 µM (inactive); with U-251 it was > 100 µM (inactive); with ACHN, > 100 µM (inactive).
Turning to `N#CC(NNC(=O)Cc1ccccc1)c1cccc(O)c1` (stereo not given), the GI50 with UACC-257, with OVCAR-5, with HCT-116, with UO-31, with UACC-62 and in the assay on TK-10 was > 100 µM (inactive) each time. The GI50 with NCI-H522 is > 100 µM (inactive); in the assay with SK-MEL-28 it was > 100 µM (inactive); with Malme-3M it was > 100 µM (inactive); in the assay on HCT-15, > 100 µM; in the assay with LXFL 529, > 100 µM (inactive); in the assay on U-251, > 100 µM (inactive). Also, the GI50 with ACHN and in the assay on SNB-75 was > 100 µM (inactive) each time.
As to `CC1=C(C(=O)Nc2cccc(C(F)(F)F)c2)C(c2ccccc2F)C(C(=O)Nc2cccc(C(F)(F)F)c2)=C(C)N1`, the GI50 with OVCAR-3 was 4.66 µM (inactive); with UACC-257, 8.65 µM (inactive); in the assay with OVCAR-5, 10.5 µM (inactive); in the assay with HCT-116, 3.63 µM (inactive); with UO-31 it was 4.83 µM (inactive); with SNB-19, 7.16 µM (inactive). The GI50 with EKVX is 3.94 µM (inactive); in the assay on TK-10 it was 8.26 µM (inactive); in the assay with NCI-H522 it was 4.79 µM (inactive); with SK-MEL-28, 11 µM (inactive); in the assay with Malme-3M, 7.08 µM (inactive); with LXFL 529 it was 5.57 µM (inactive). Also, the GI50 in the assay on U-251 was 8.69 µM (inactive); in the assay with ACHN it was 4.2 µM (inactive); in the assay on SNB-75 it was 9.57 µM (inactive).
For `CC1=C(C(=O)Nc2ccc([N+](=O)[O-])cc2)C(c2ccc(N(C)C)cc2)C(C(=O)Nc2ccc([N+](=O)[O-])cc2)=C(C)N1`, the GI50 was 16 µM (inactive) with OVCAR-3; 16.4 µM (inactive) in the assay with UACC-257; 23.2 µM (inactive) in the assay on OVCAR-5; 21.5 µM (inactive) in the assay with UO-31; 36.4 µM (inactive) in the assay on SNB-19; 25.4 µM (inactive) in the assay on EKVX. Also, the GI50 is 32 µM (inactive) with TK-10; 11 µM (inactive) in the assay with NCI-H522; 13.5 µM (inactive) in the assay with SK-MEL-28; 23.3 µM (inactive) in the assay on Malme-3M; 16.8 µM (inactive) in the assay on LXFL 529; 21.9 µM (inactive) in the assay on U-251. Further, the GI50 was 0.0475 µM (active) with ACHN and 13.7 µM (inactive) with SNB-75.
On to `NNC(=S)N/N=C(\c1nc2ccc(Cl)cc2nc1O)C(O)c1ccc(Cl)cc1Cl` (stereo not given), for which the GI50 in the assay on UACC-257, in the assay on OVCAR-5, in the assay with HCT-116, in the assay with UO-31, in the assay with SNB-19 and in the assay with UACC-62 was > 100 µM (inactive) in each case. For the same molecule, the GI50 was > 100 µM (inactive) in the assay with EKVX; > 100 µM (inactive) in the assay with TK-10; > 100 µM (inactive) with NCI-H522; > 100 µM (inactive) in the assay with SK-MEL-28; > 100 µM (inactive) in the assay on Malme-3M; > 100 µM in the assay with HCT-15. Further, the GI50 with LXFL 529, in the assay with U-251, with ACHN and in the assay with SNB-75 was > 100 µM (inactive) each time.
Take `CCc1cccc(CC)c1NC(=O)/C(Cl)=C(/Cl)C(=O)O`: the GI50 in the assay on OVCAR-3 is 32.8 µM (inactive); with UACC-257, 24.1 µM (inactive); in the assay with OVCAR-5 it was > 100 µM (inactive); in the assay on HCT-116, 25 µM (inactive); with UO-31, 32.4 µM (inactive); with SNB-19 it was > 100 µM (inactive). For the same molecule, the GI50 with UACC-62 is 37.4 µM (inactive); in the assay on EKVX, > 56.6 µM (inactive); in the assay on TK-10, 34 µM (inactive); in the assay with NCI-H522 it was 10.2 µM (inactive); in the assay on SK-MEL-28 it was 35.3 µM (inactive); in the assay with Malme-3M, 19 µM (inactive). The GI50 with HCT-15 is 19.4 µM; with LXFL 529, 13.6 µM (inactive); in the assay with U-251, > 58.2 µM (inactive); in the assay on ACHN, 26.9 µM (inactive); in the assay with SNB-75 it was 43.9 µM (inactive).
As for `Cc1ccc(Nc2ccc(Nc3ccc(C)cc3)c3c2C(=O)c2c(O)ccc(O)c2C3=O)cc1`, the GI50 in the assay with OVCAR-3 is 70.5 µM (inactive); in the assay with UACC-257, > 100 µM (inactive); with OVCAR-5 it was > 100 µM (inactive); in the assay with HCT-116, > 100 µM (inactive); in the assay with UO-31, > 100 µM (inactive); in the assay with SNB-19, > 100 µM (inactive). Besides, the GI50 with UACC-62 is > 100 µM (inactive); with EKVX it was > 100 µM (inactive); with TK-10 it was > 100 µM (inactive); with NCI-H522, 47.8 µM (inactive); in the assay with SK-MEL-28, 91.4 µM (inactive); in the assay with Malme-3M, > 100 µM (inactive). The GI50 in the assay with HCT-15 is > 100 µM; in the assay on LXFL 529 it was 75.2 µM (inactive); in the assay with U-251, > 100 µM (inactive); with ACHN, > 100 µM (inactive); in the assay on SNB-75, 68.4 µM (inactive).
As for `COC(=O)C1=C(c2cc(OC)c(OC)c(OC)c2)OC(c2cc(OC)c(OC)c(OC)c2)C1COC(C)=O` (stereo not given), the GI50 with OVCAR-3 is 33.7 µM (inactive); in the assay with UACC-257, 95.7 µM (inactive); in the assay with OVCAR-5 it was 18.1 µM (inactive); in the assay on HCT-116, 30.4 µM (inactive); in the assay with UO-31, 27.2 µM (inactive); in the assay on SNB-19 it was > 100 µM (inactive). In addition, the GI50 was 30.5 µM (inactive) in the assay with UACC-62; > 100 µM (inactive) in the assay with EKVX; 42.4 µM (inactive) in the assay with TK-10; 16.7 µM (inactive) with NCI-H522; > 100 µM (inactive) in the assay on SK-MEL-28; > 100 µM (inactive) with Malme-3M. Further, the 50% growth inhibitory concentration (GI50) was 26.9 µM in the assay on HCT-15; 34.4 µM (inactive) in the assay with LXFL 529; 51.6 µM (inactive) in the assay on U-251; 30.1 µM (inactive) with ACHN; 74.6 µM (inactive) in the assay on SNB-75.
Regarding `CN1CC(=O)N(C)c2ncn(Cc3ccccc3)c2C1=O`, the GI50 in the assay on OVCAR-3, in the assay on UO-31, in the assay on SNB-19, in the assay on UACC-62, with EKVX and in the assay on TK-10 was > 100 µM (inactive) throughout. For the same molecule, the GI50 in the assay with SK-MEL-28 is > 100 µM (inactive); in the assay on Malme-3M it was > 100 µM (inactive); in the assay with HCT-15, > 100 µM; in the assay with LXFL 529, > 100 µM (inactive); in the assay on U-251, > 100 µM (inactive); in the assay with ACHN, > 100 µM (inactive). Besides, in the assay on SNB-75, the GI50 was > 100 µM (inactive).
